The text below walks through data of paper PMC11850616, “Nanomolar inhibitor of the galectin-8 N-terminal domain binds via a non-canonical cation-π interaction” (Communications Chemistry, 2025).

Assay [1] concerns the target T1, Gal-1 (Homo sapiens, UniProt P09382).
T1 construct: made in house
The assay can be described thus: competitive fluorescence polarisation assay, Gal-1. As to conditions: for Kd: competitive FP, mean ± SEM of n = 4 to 8, 20 °C; for Gal-1 selectivity ratio Kd (Gal-1)/Kd (Gal-8N): ratio of FP Kd values. Format: binding. The protocol:
(§1) Human galectins-1, -3, and -8N were expressed and purified as described previously[8],[23],[24]. Competitive fluorescence polarization assays were performed with a PHERAstar FS plate reader with software PHERAstar Mars version 2.10 R3 (BMG, Offenburg, Germany) and Tecan Spark multimode microplate reader (Tecan Trading AG, Switzerland), where a fluorescence anisotropy of fluorescent-tagged probes was measured by excitation at 485 nm and emission at 520 nm. Experiments were performed at 20 °C with Gal-1 at 0.5 µM, Gal-3 at 0.2 µM, and Gal-8N at 0.4 µM. Fluorescent probes used for experiments were 3,3′-dideoxy-3-[4-(fluorescein-5-yl-carbonylaminomethyl)-1H-1,2,3-triazol-1-yl]-3′-(3,5-di-methoxybenzamido)-1,1′-sulfanediyl-di-β-D-galactopyranoside at 0.02 µM for Gal-1 and -3 and 2-(fluorescein-5-yl-carbonylamino)ethyl β-D-galactopyranosyl(1-4)-2-acetamido-2-deoxy-β-D-glucopyranosyl(1–3)-β-D-galactopyranosyl(1–4)-β-D-glucopyranoside at 0.1 µM for Gal-8N in each well. Compounds were first dissolved in pure DMSO at 20 mM concentration and later diluted in 5% DMSO in PBS solution to 5-7 different concentrations. Each concentration was tested in duplicate. The highest inhibitor concentrations tested were 1.5 mM. The average values of Kd and SEM (standard error mean) were calculated from 4 to 8 duplicate measurements, showing 10–90% inhibition.
On the technique in general: Fluorescence polarisation rises when a labelled molecule tumbles more slowly, as on binding a larger partner.

The target in assay [2] is T2, Gal-8C (Homo sapiens, UniProt O00214).
T2 construct: than to the C-terminal domain (Gal-8C)
T2 sequence (O00214 187-317 limits assumed): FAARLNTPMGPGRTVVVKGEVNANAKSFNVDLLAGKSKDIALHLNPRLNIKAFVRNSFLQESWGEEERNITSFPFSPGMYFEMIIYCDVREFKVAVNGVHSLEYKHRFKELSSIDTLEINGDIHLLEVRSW
In words: competitive fluorescence polarisation assay, Gal-8C. Format: binding. The conditions noted are these: for Kd: competitive FP, mean ± SEM of n = 4 to 8; for Gal-8C selectivity ratio Kd (Gal-8C)/Kd (Gal-8N): ratio of FP Kd values.

Assay [3] has as its target T3, Gal-8N (galectin-8 N-terminal domain) (Homo sapiens, UniProt O00214).
T3 construct: made in house
T3 sequence (O00214 19-152 limits assumed): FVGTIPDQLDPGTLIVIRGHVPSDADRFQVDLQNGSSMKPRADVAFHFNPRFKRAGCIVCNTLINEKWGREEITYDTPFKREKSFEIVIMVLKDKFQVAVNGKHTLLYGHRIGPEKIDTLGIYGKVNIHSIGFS
In words: competitive fluorescence polarisation assay, Gal-8N. As to conditions: competitive FP, mean ± SEM of n = 4 to 8, 20 °C; read-out: Kd Gal-8N. In kind it is binding. The protocol:
as §1

In assay [4] the target is T4, Gal-8N (Homo sapiens, UniProt O00214).
T4 construct: consisting of residues 4-158 was produced by Lund Protein Production Platform; made in house; host or cells: E. coli TUNER(DE3)
T4 sequence (O00214 4-158): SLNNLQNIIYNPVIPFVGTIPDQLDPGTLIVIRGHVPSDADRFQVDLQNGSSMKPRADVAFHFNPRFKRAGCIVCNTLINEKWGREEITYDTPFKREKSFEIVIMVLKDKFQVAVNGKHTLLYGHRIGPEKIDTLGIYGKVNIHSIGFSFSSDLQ
In words: ligand efficiency (LE) and ligand-lipophilicity efficiency (LLE) calculations. As to conditions: for LLE: from Gal-8N Kd and clogP; for LE: from Gal-8N Kd and number of non-hydrogen atoms.

Assay [5] deals with T5, Gal-3 (Homo sapiens, UniProt P17931).
T5 construct: made in house
In words: competitive fluorescence polarisation assay, Gal-3. As to conditions: for Kd: competitive FP, mean ± SEM of n = 4 to 8, 20 °C, read-out: Kd Gal-3; for Gal-3 selectivity ratio Kd (Gal-3)/Kd (Gal-8N): ratio of FP Kd values. In kind it is binding. How it is done:
as §1

T5 sequence (P17931 whole entry): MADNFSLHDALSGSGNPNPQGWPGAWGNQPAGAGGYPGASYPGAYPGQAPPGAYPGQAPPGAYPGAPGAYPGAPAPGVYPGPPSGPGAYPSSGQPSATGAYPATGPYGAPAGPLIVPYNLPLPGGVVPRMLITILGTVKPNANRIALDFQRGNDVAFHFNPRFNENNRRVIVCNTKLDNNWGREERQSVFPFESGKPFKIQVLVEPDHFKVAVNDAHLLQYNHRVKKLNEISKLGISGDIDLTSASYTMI
T1 sequence (P09382 whole entry): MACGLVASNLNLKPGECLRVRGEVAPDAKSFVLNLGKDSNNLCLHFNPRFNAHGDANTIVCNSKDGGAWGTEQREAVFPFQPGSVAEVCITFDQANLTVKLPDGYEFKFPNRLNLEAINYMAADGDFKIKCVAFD

For `COC(=O)c1cccc(-n2cc(CO[C@@H]3[C@@H](OCc4nc5ccc(C(=O)O)cc5n4C)[C@@H](O)[C@@H](CO)O[C@@H]3Sc3ccc(Cl)c(Cl)c3)nn2)c1` [Compound 15b], in assay [1], the Kd stood at 104 ± 7.4 µM and the “Gal-1 selectivity ratio Kd (Gal-1)/Kd (Gal-8N)” value (“Gal-1 selectivity ratio Kd” for short) was 23. Also, in assay [2], the Kd was 568 ± 23 µM and the “Gal-8C selectivity ratio Kd (Gal-8C)/Kd (Gal-8N)” value (“Gal-8C selectivity ratio Kd” below) was found to be 126. Further, in assay [3], the Kd is 4.5 ± 0.24 µM. Also, in assay [4], the LLE is 0.0722 and the LE is 0.146 (kcal/mol)/heavy atom. In assay [5], the Kd amounted to 22 ± 5.5 µM and the “Gal-3 selectivity ratio Kd (Gal-3)/Kd (Gal-8N)” value (shortened to “Gal-3 selectivity ratio Kd”) amounted to 4.9.

As to `COC(=O)c1ccc(-n2cc(CO[C@@H]3[C@@H](OCc4nc5ccc(C(=O)O)cc5n4C)[C@@H](O)[C@@H](CO)O[C@@H]3Sc3ccc(Cl)c(Cl)c3)nn2)cc1` [Compound 15c], in assay [1], the Kd came to 99 ± 3.1 µM and the “Gal-1 selectivity ratio Kd” value amounted to 24. Besides, in assay [2], binding was characterised by a dissociation constant (Kd) of 350 ± 60 µM and the “Gal-8C selectivity ratio Kd” value was determined as 85. Besides, the Kd in assay [3] was determined as 4.1 ± 0.33 µM. In addition, in assay [4], the LLE is 0.109 and the LE is 0.147 (kcal/mol)/heavy atom. Besides, in assay [5], the Kd turned out to be 23 ± 4.9 µM and the “Gal-3 selectivity ratio Kd” value was 5.6.

On to `Cn1c(CO[C@H]2[C@@H](O)[C@@H](CO)O[C@H](Sc3ccc(Cl)c(Cl)c3)[C@@H]2OCc2cn(-c3ccccc3C(=O)O)nn2)nc2ccc(C(=O)O)cc21` [Compound 16a], for which, in assay [1], the Kd came out at 26 ± 1.1 µM and the “Gal-1 selectivity ratio Kd” value is on record as 57. Besides, in assay [2], the affinity, expressed as Kd, was 159 ± 4 µM and the “Gal-8C selectivity ratio Kd” value amounted to 346. Moreover, in assay [3], the Kd came out at 0.46 ± 0.03 µM. Besides, in assay [4], the LLE is listed as 1.26 and the LE is 0.177 (kcal/mol)/heavy atom. In assay [5], the Kd was determined as 1.2 ± 0.2 µM and the “Gal-3 selectivity ratio Kd” value is listed as 2.6.

As for `Cn1c(CO[C@H]2[C@@H](O)[C@@H](CO)O[C@H](Sc3ccc(Cl)c(Cl)c3)[C@@H]2OCc2cn(-c3cccc(C(=O)O)c3)nn2)nc2ccc(C(=O)O)cc21` [Compound 16b], in assay [1], binding was put at a Kd of 37 ± 1.1 µM and the “Gal-1 selectivity ratio Kd” value is 57. Also, in assay [2], the Kd worked out at 100 ± 2 µM and the “Gal-8C selectivity ratio Kd” value was found to be 154. Also, in assay [3], the Kd stood at 0.65 ± 0.05 µM. In assay [4], the LLE is listed as 1.11 and the LE is recorded as 0.173 (kcal/mol)/heavy atom. In assay [5], the Kd was 2.9 ± 0.4 µM and the “Gal-3 selectivity ratio Kd” value is 4.5.

As to `Cn1c(CO[C@H]2[C@@H](O)[C@@H](CO)O[C@H](Sc3ccc(Cl)c(Cl)c3)[C@@H]2OCc2cn(-c3ccc(C(=O)O)cc3)nn2)nc2ccc(C(=O)O)cc21` [Compound 16c], in assay [1], the Kd was 45 ± 0.8 µM and the “Gal-1 selectivity ratio Kd” value came out at 41. Besides, in assay [2], the Kd is 201 ± 37 µM and the “Gal-8C selectivity ratio Kd” value was 183. The Kd in assay [3] turned out to be 1.1 ± 0.07 µM. In assay [4], the LLE is recorded as 0.888 and the LE is 0.167 (kcal/mol)/heavy atom. Besides, in assay [5], the Kd stood at 6.2 ± 1.1 µM and the “Gal-3 selectivity ratio Kd” value was determined as 5.6.

On to `Cn1c(CO[C@H]2[C@@H](O)[C@@H](CO)O[C@H](Sc3ccc(Cl)c(Cl)c3)[C@@H]2OCC2CCCCC2)nc2ccc(C(=O)O)cc21` [Compound 19], for which, in assay [1], binding was characterised by a dissociation constant (Kd) of 76 ± 15 µM and the “Gal-1 selectivity ratio Kd” value came out at 18.5. Also, in assay [2], binding was put at a Kd of 662 ± 27 µM and the “Gal-8C selectivity ratio Kd” value was 161. Besides, the Kd in assay [3] turned out to be 4.1 ± 0.61 µM. In assay [4], the LLE is -0.926 and the LE was 0.180 (kcal/mol)/heavy atom. Further, in assay [5], the Kd came out at 21 ± 1.5 µM and the “Gal-3 selectivity ratio Kd” value came out at 5.1.

Broadly, the Kd is the free concentration of one partner at which half of the binding sites on the other are occupied at equilibrium, for simple one-to-one binding.
